The values below come from patent US8143394B2, “Pyrido(3,2-d)pyrimidines useful for treating viral infections” (Gilead Sciences, Inc., priority 2006, dated 2012).

Molecules are shown by their SMILES.

A short description of data set [1]: CC50 assay (CellTiter-Glo) in Huh-7 HCV replicon cells. Type of data set: cell-based, human. The conditions noted are these: human, 50% cytostatic concentration. As for the experimental part: (§1) The anti-HCV activity of the pyrido[3,2-d]pyrimidine derivatives of this invention was tested in a human hepatoma Huh-7 cell line harbouring a HCV replicon. The assay comprised the following steps:
(§2) Step 1: Compound Preparation and Serial Dilution
(§3) • 1. for water soluble pyrido[3,2-d]pyrimidine derivatives, a volume of 500 μL of solution in cell media (DMEM, 10% FBS, P/S, L-Glutamine) was prepared with a concentration being twice the concentration of the starting final serial dilution concentration. A volume of 150 μL of the solution was added to the pre-specified wells in column 1 of a 96-well cell culture plate (PerkinElmer, white plate, cat. #6005181, for EC50 assay; black plate, cat. #6005182 for CC50 assay). The rest of the plate, columns 2-12, was filled with 100 μL of cell media. The plate was then placed on a Precision 2000 Workstation to start the serial dilution. Compounds were diluted three times each step from column 1 to column 10. Column 11 was used as a blank control (no compound added). • 2. for pyrido[3,2-d]pyrimidine derivatives requiring DMSO to dissolve, serial dilution is performed in 50% DMSO in a 384-well plate. A solution containing a compound at 100-fold concentration of the starting final serial dilution concentration was prepared in 50% DMSO and added to the pre-specified wells in column 1 of a polypropylene 384-well plate. The plate was then placed on a Precision 2000 Workstation to start the serial dilution. After the serial dilution, a volume of 2 μL of the solution was transferred from the 384-well plate to a 96-well cell culture plate containing 100 μL of cell media on a Biomek FX Workstation. The DMSO concentration in the final assay condition was 0.5% after cells are added to the plate and the total volume in each well is brought to 200 μL. Step 2: to each well of the serial dilution plate prepared above, 100 μL of cell media containing 6000 suspended Huh-7 HCV replicon cells was added with a Multidrop workstation. The plates were incubated for 3 days at 37° C. with 5% CO2. Step 3: Detection: • a) for the EC50 assay, the media in a 96-well cell culture plate was aspirated with a Biotek EL405 plate-washer. A volume of 200 μL of a solution containing a 1:1 mixture of cell-lysis buffer (Promega, Luciferase Cell Culture Lysis 5X Reagent, cat. #E1531) and luciferase substrate solution (Promega, Luciferase Assay, cat. # E4550) was added to each well of the plate with Multidrop. The plate was incubated for 30 minutes at room temperature before the luminescence signal was measured with a TopCount plate-reader. • b) for the CC50 assay, a volume of 100 μL of pre-mixed CellTiter-Glo (Promega, cat. # G7572) solution is added directly to the cell culture in each well of the plate and the luminescence signal is measured with a TopCount plate-reader after 10 minutes of incubation at room temperature.
(§4) Results in table 13 are expressed by the following data: • the 50% effective concentration (EC50), i.e. the concentration that protects 50% of the cell monolayer from virus-induced cythopathic effect, and • the 50% cytostatic concentration (CC50), i.e. the concentration that results in 50% inhibition of cell growth.
On the technique in general: In ATP-based viability assays light output follows the ATP content of the culture.

Data set [2] has as its system HCV replicon. The experiment in a line: Anti-HCV replicon assay (EC50, luciferase readout). The data set is classed as cell-based. The note with it: Hepatitis C virus, 72 h; human hepatoma Huh-7 cell line harbouring a HCV replicon; 3 days; luciferase; read-out: EC50. As for the experimental part:
as §1, §2, §3, §4
Background: In antiviral work, replicon cells carry a viral genome segment that copies itself.

The term CC50 denotes the concentration that lowers cell viability or growth by half. Low values mean greater toxicity to the cells, high ones lower toxicity to the cells. As usually defined, the EC50 is the midpoint of the concentration-response curve. For the molecule `CCOc1nc(N)nc2ccc(-c3cccc(NS(=O)(=O)C4CCS(=O)(=O)C4)c3)nc12` (stereo not drawn) [Example 51, 1,1-Dioxo-tetrahydro-1?^6-thiophene-3-sulfonic acid [3-(2-amino-4-ethoxy-pyrido[3,2-d]pyrimidin-6-yl)-phenyl]-amide], the CC50 at 3 days in data set [1] is > 20000 nM. Also, in data set [2], the EC50 is < 300 nM.
As for `CCOc1nc(N)nc2ccc(-c3cccc(NS(=O)(=O)C(C)C)c3)nc12` [Example 52, Propane-2-sulfonic acid[3-(2-amino-4-ethoxy-pyrido[3,2-d]pyrimidin-6-yl)-phenyl]-amide], the CC50 at 3 days in data set [1] was < 10000 nM. The EC50 in data set [2] was < 300 nM.
Taken in the same sequence, the figures for `CCOc1nc(N)nc2ccc(-c3cccc(NS(=O)(=O)C4CC4)c3)nc12` [Example 53, Cyclopropanesulfonic acid[3-(2-amino-4-ethoxy-pyrido[3,2-d]pyrimidin-6-yl)-phenyl]-amide] were > 20000 nM and < 300 nM.
`CCOc1nc(N)nc2ccc(-c3cccc(NS(=O)(=O)CC)c3)nc12` [Example 54, Ethanesulfonic acid [3-(2-amino-4-ethoxy-pyrido[3,2-d]pyrimidin-6-yl)-phenyl]-amide]: the CC50 at 3 days in data set [1] was > 20000 nM. The EC50 in data set [2] was < 300 nM.
Taken in the same sequence, the figures for `CCOc1nc(N)nc2ccc(-c3ccc(NS(=O)(=O)CC)cc3)nc12` [Example 55, ethanesulfonic acid [4-(2-amino-4-ethoxy-pyrido[3,2-d]pyrimidin-6-yl)-phenyl]-amide] were > 20000 nM and > 1000 nM.
Consider `CCOc1nc(N)nc2ccc(-c3ccc(C(=O)NCC(C)C)cc3)nc12` [Example 56, 4-(2-Amino-4-ethoxy-pyrido[3,2-d]pyrimidin-6-yl)-N-isobutyl-benzamide], for which the CC50 at 3 days in data set [1] was > 20000 nM. Also, the concentration for a half-maximal effect (EC50) in data set [2] lay in the range of 300 to 1000 nM.
Taken in the same sequence, the figures for `CCCCNC(=O)c1ccc(-c2ccc3nc(N)nc(OCC)c3n2)cc1` [Example 57, 4-(2-Amino-4-ethoxy-pyrido[3,2-d]pyrimidin-6-yl)-N-butyl-benzamide] were > 20000 nM and 300 to 1000 nM.
As for `CCOc1nc(N)nc2ccc(-c3ccc(C(=O)NC(C)(C)C)cc3)nc12` [Example 58, 4-(2-Amino-4-ethoxy-pyrido[3,2-d]pyrimidin-6-yl)-N-tert-butyl-benzamide], the CC50 at 3 days in data set [1] is > 20000 nM. Besides, the concentration giving a half-maximal response (EC50) in data set [2] is > 1000 nM.
With `CCOc1nc(N)nc2ccc(-c3ccc(C(=O)NC4CCCC4)cc3)nc12` [Example 59, 4-(2-Amino-4-ethoxy-pyrido[3,2-d]pyrimidin-6-yl)-N-cyclopentyl-benzamide], the CC50 at 3 days in data set [1] is > 20000 nM. Also, the EC50 in data set [2] was 300 to 1000 nM.
The matching figures for `CCOc1nc(N)nc2ccc(-c3ccc(C(=O)NOC)cc3)nc12` [Example 60, 4-(2-Amino-4-ethoxy-pyrido[3,2-d]pyrimidin-6-yl)-N-methoxy-benzamide]: > 20000 nM and > 1000 nM.
The matching figures for `CCOc1nc(N)nc2ccc(-c3ccc(C(=O)NC(C)C)cc3)nc12` [Example 61, 4-(2-Amino-4-ethoxy-pyrido[3,2-d]pyrimidin-6-yl)-N-isopropyl-benzamide]: > 20000 nM and 300 to 1000 nM.
As for `CCOc1nc(N)nc2ccc(-c3ccc(C(=O)NC4CC4)c(Cl)c3)nc12` [Example 62, 4-(2-Amino-4-ethoxy-pyrido[3,2-d]pyrimidin-6-yl)-2-chloro-N-cyclopropyl-benzamide], in data set [1], the CC50 at 3 days is > 20000 nM. The EC50 in data set [2] is > 1000 nM.
Taken in the same sequence, the figures for `CCOc1nc(N)nc2ccc(-c3ccc(C(=O)NCCN(C)C)cc3)nc12` [Example 63, 4-(2-Amino-4-ethoxy-pyrido[3,2-d]pyrimidin-6-yl)-N-(2-dimethylamino-ethyl)-benzamide] were 10000 to 20000 nM and < 300 nM.
As for `CC(C)CNC(=O)c1ccc(-c2ccc3nc(N)nc(OC(C)C)c3n2)cc1` [Example 64, 4-(2-Amino-4-isopropoxy-pyrido[3,2-d]pyrimidin-6-yl)-N-isobutyl-benzamide], the CC50 at 3 days in data set [1] is > 20000 nM. Moreover, in data set [2], the EC50 lay in the range of 300 to 1000 nM.
As for `CC(C)Oc1nc(N)nc2ccc(-c3ccc(C(=O)NC4CCCCC4)cc3)nc12` [Example 65, 4-(2-Amino-4-isopropoxy-pyrido[3,2-d]pyrimidin-6-yl)-N-cyclohexyl-benzamide], the CC50 at 3 days in data set [1] was > 20000 nM. The EC50 in data set [2] was > 1000 nM.
As for `CCCCNC(=O)c1ccc(-c2ccc3nc(N)nc(OC(C)C)c3n2)cc1` [Example 66, 4-(2-Amino-4-isopropoxy-pyrido[3,2-d]pyrimidin-6-yl)-N-n-butyl-benzamide], in data set [1], the CC50 at 3 days is > 20000 nM. The EC50 in data set [2] fell in the range of 300 to 1000 nM.
Take `CC(C)Oc1nc(N)nc2ccc(-c3ccc(C(=O)NC(C)(C)C)cc3)nc12` [Example 67, 4-(2-Amino-4-isopropoxy-pyrido[3,2-d]pyrimidin-6-yl)-N-tert-butyl-benzamide]: the CC50 at 3 days in data set [1] was > 20000 nM. Besides, the EC50 in data set [2] lay in the range of 300 to 1000 nM.
As to `CC(C)Oc1nc(N)nc2ccc(-c3ccc(C(=O)NC4CCCC4)cc3)nc12` [Example 68, 4-(2-Amino-4-isopropoxy-pyrido[3,2-d]pyrimidin-6-yl)-N-cyclopentyl-benzamide], the CC50 at 3 days in data set [1] is > 20000 nM. In data set [2], the EC50 was in the range of 300 to 1000 nM.
Taken in the same sequence, the figures for `CC(C)NC(=O)c1ccc(-c2ccc3nc(N)nc(OC(C)C)c3n2)cc1` [Example 69, 4-(2-Amino-4-isopropoxy-pyrido[3,2-d]pyrimidin-6-yl)-N-isopropyl-benzamide] were > 20000 nM and < 300 nM.
Turning to `CONC(=O)c1ccc(-c2ccc3nc(N)nc(OC(C)C)c3n2)cc1` [Example 70, 4-[2-Amino-4-isopropoxy-pyrido[3,2-d]pyrimidin-6-yl]-N-methoxy-benzamide], the CC50 at 3 days in data set [1] was > 20000 nM. Also, the EC50 in data set [2] is < 300 nM.
Taken in the same sequence, the figures for `CNC(=O)c1ccc(-c2ccc3nc(N)nc(OC(C)C)c3n2)cc1Cl` [Example 71, 4-(2-Amino-4-isopropoxy-pyrido[3,2-d]pyrimidin-6-yl)-2-chloro-N-methyl-benzamide] were > 20000 nM and > 1000 nM.
As for `CC(C)Oc1nc(N)nc2ccc(-c3ccc(C(=O)NC4CC4)c(Cl)c3)nc12` [Example 72, 4-(2-Amino-4-isopropoxy-pyrido[3,2-d]pyrimidin-6-yl)-2-chloro-N-cyclopropyl-benzamide], the CC50 at 3 days in data set [1] was > 20000 nM. Moreover, the EC50 in data set [2] is > 1000 nM.
As to `CC(C)Oc1nc(N)nc2ccc(-c3ccc(C(=O)NC4CC4)cc3)nc12` [Example 73, 4-(2-Amino-4-isopropoxy-pyrido[3,2-d]pyrimidin-6-yl)-N-cyclopropyl-benzamide], the CC50 at 3 days in data set [1] was > 20000 nM. The EC50 in data set [2] was < 300 nM.
The matching figures for `COc1nc(N)nc2ccc(-c3ccc(C(=O)NC4CC4)cc3)nc12` [Example 74, 4-(2-Amino-4-methoxy-pyrido[3,2-d]pyrimidin-6-yl)-N-cyclopropyl-benzamide]: 10000 to 20000 nM and 300 to 1000 nM.
For `COCCOc1nc(N)nc2ccc(-c3ccc(C(=O)NC(C)C)cc3)nc12` [Example 75, 4-[2-Amino-4-(2-methoxy-ethoxy)-pyrido[3,2-d]pyrimidin-6-yl]-N-isopropyl-benzamide], the CC50 at 3 days in data set [1] is > 20000 nM. Besides, the EC50 in data set [2] is 300 to 1000 nM.
Taken in the same sequence, the figures for `COCCOc1nc(N)nc2ccc(-c3ccc(C(=O)NOC)cc3)nc12` [Example 76, 4-[2-Amino-4-(2-methoxy-ethoxy)-pyrido[3,2-d]pyrimidin-6-yl]-N-methoxy-benzamide] were > 20000 nM and 300 to 1000 nM.
Taken in the same sequence, the figures for `CC(C)N1CCC(NC(=O)c2ccc(-c3ccc4nc(N)nc(O[C@H]5CCOC5)c4n3)cc2)CC1` [Example 77, 4-[2-Amino-4-(tetrahydro-furan-3-yloxy)-pyrido[3,2-d]pyrimidin-6-yl]-N-(1-isopropyl-piperidin-4-yl)-benzamide] were > 20000 nM and > 1000 nM.
